Consider two compounds from patent publication US20110009368A1, “SOLID FORMS OF TENOFOVIR DISOPROXIL” (ULTIMORPHIX TECHNOLOGIES B.V., priority 2007, published 2011).

Series [1] in a line: Intrinsic dissolution rate measurement (micro-dissolution, UV). The format is physicochemical. The settings on record: for Dissolution rate: 20 ml, 100 rpm. The method, then:
20 ml of high pure water was placed in 25 ml vial in the micro-dissolution thermal block by using a 20 ml volumetric pipette. A large cross stirrer was placed to the vial and the solution was stirred at a speed of 100 rpm. The 5 mm path length tip was placed from the top along with the probe connected with DAD (Diode Array Detector) analyzer. The 100% transmittance and dark spectra was collected by using high pure water. In the next step a tablet of 10 mg of Tenofovir disoproxil succinate (TDSU ULT-1) was pressed on tablet machine and placed along with the stirrer in a 25 ml vial in the micro-dissolution thermal block. The probe was placed along with the 5 mm path length tip and 20 ml of high pure water was added to the sample. The solution was stirred with a speed of 100 rpm and absorbance or the optical density was determined with respect to time by UV spectrometer. The intrinsic dissolution rate was determined by plotting concentration versus time and calculating the slope of the curve.
The same experiments were performed in a similar manner in buffered media of pH values of […]. pH buffers for dissolution pH 1.5: USP SGF without pepsin (0.05M sodium chloride adjusted to pH 1.5 with HCl) pH 3.0: 0.05 sodium di-hydrogen phosphate buffer adjusted to […] with NaOH pH 4.5: 0.05M sodium di-hydrogen phosphate buffer adjusted to pH 4.5 with NaOH pH 6.8: USP SIF without pancreatin (0.05M sodium di-hydrogen phosphate buffer adjusted to pH 6.8 with NaOH) pH 7.4: 0.05M sodium di-hydrogen phosphate adjusted to pH 7.4 with NaOH Results of intrinsic dissolution rate measurements

The nature of series [2]: Dynamic Vapour Sorption (DVS) moisture sorption. In kind it is physicochemical. The settings on record: for total uptake of water vapours (max water adsorption, hygroscopicity): relative humidity 0% to 95% in steps of 5%, 1 h per step. The method, then:
Moisture sorption isotherms were measured using a DVS-1 system of Surface Measurement Systems (London, UK). Differences in moisture uptake of a solid material indicate differences in the relative stabilities of the various solid forms for increasing relative humidity. The experiment was carried out at a constant temperature of 25° C.
A sample of about 15 mg of TDSU ULT-1 was spread in the DVS pan. The sample was dried at 0% RH for 7 h. Subsequently the relative humidity of the chamber was increased in steps of 5% units from 0% to 95% in order to monitor the sorption of water vapours. The samples remained in each of the steps for 1 h. Following, desorption was monitored by decreasing the relative humidity to 0% in steps of 5% units and remaining at each step for 1 h. The graph of sorption-desorption cycle is shown below. […] In a similar DVS experiment using the starting material as purchased, the total vapour intake was about 4%, which is undesirable in formulation and requires additional measures.

The nature of series [3]: Intrinsic dissolution rate measurement (micro-dissolution, UV). The format is physicochemical. The settings on record: 20 ml, 100 rpm.
Series [4] is described as follows: Stress testing in climatic chamber, physical and chemical stability by XRPD and HPLC. The following applies: 40° C. and 75% relative humidity. The format is physicochemical. The method, then: A small quantity (of about 10 milligrams) of TDSU ULT-1 was placed in a Binder climatic chamber KBR115 series for stress testing under 40° C. and 75% relative humidity (RH). The material was checked for physical and chemical stability by XRPD and HPLC respectively in intervals of 2 and 4 weeks. In both cases the material was stable, i.e. no structural change or chemical degradation took place over the tested period.

The conditions of series [5]: known crystalline form; compared with industry limits; cited from earlier work.

“Also recorded” adds a separate entry of the source. Counter-ions that a name gives are not always drawn. A value given as a limit tells only on which side of the number the result lay.

“Tenofovir Disoproxil succinate [TDSU ULT-1]”: the Dissolution rate in series [1] (Buffer pH 1.5, 10 mg tablet) is listed as 10.00 mgmin−1 cm−2; in series [1] (Buffer pH 4.5, 10 mg tablet), 3.55 mgmin−1 cm−2; in series [1] (water, 10 mg tablet) it was 1.42 mgmin−1 cm−2; in series [3] (Buffer pH 3.0, 10 mg tablet), 1.78 mgmin−1 cm−2; in series [3] (Buffer pH 6.8, 10 mg tablet) it was 1.88 mgmin−1 cm−2; in series [3] (Buffer pH 7.4, 10 mg tablet), 1.09 mgmin−1 cm−2. Also, the “dissolving faster compared to TDF 1:1” value in series [1] (in water and in all media with pH values ranging from 1.5 to 7.4) is reported as “up to 3 times”. In series [2] (DVS, 25° C., 0% to 95% RH), the “hygroscopicity (conclusion from DVS data)” value is on record as “no hygroscopicity; also recorded: not hygroscopic”. Besides, the “total uptake of water vapours (max water adsorption, hygroscopicity)” value in series [2] (DVS, 25° C.) is “about 0.3%”. Also, the “structure by XRPD at the end of the DVS experiment” value in series [2] (after sorption-desorption cycle) was “no any changes in the structure”. The “physical and chemical stability (XRPD and HPLC)” value in series [4] (2 weeks) and in series [4] (4 weeks) was “stable” each time.

Regarding `CC(C)OC(=O)OCOP(=O)(CO[C@H](C)Cn1cnc2c(N)ncnc21)OCOC(=O)OC(C)C` [TDF 1:1, 9-[(R)-2-[[bis[[(isopropoxycarbonyl)oxy]methoxy]phosphinyl]methoxy]propyl]adenine fumarate (1:1), reference compound], the Hygroscopicity in series [5] is > 4%. Also, the Dissolution rate was 3.29 mgmin−1 cm−2 in series [1] (Buffer pH 1.5, 10 mg tablet); 0.99 mgmin−1 cm−2 in series [1] (Buffer pH 4.5, 10 mg tablet); 1.12 mgmin−1 cm−2 in series [1] (water, 10 mg tablet); 1.36 mgmin−1 cm−2 in series [3] (Buffer pH 3.0, 10 mg tablet); 0.98 mgmin−1 cm−2 in series [3] (Buffer pH 6.8, 10 mg tablet). Besides, the “total uptake of water vapours (max water adsorption, hygroscopicity)” value in series [2] (DVS, 25° C.) is “about 4%”.
